Here are results for three molecules from article PMC9768162, “Synthesis of macrocyclic nucleoside antibacterials and their interactions with MraY” (Nature Communications, 2022).

≈ marks a conversion by molar mass, not a printed value. Where “and” joins values, the source holds several entries; their conditions need not be identical. Equal entries are not always repeated. Where two headings read alike, the source gives them in different places.

The subject of one assay is E. coli. Kind of assay: Antibacterial activity, MIC by microdilution broth method (CLSI). The conditions noted are these: E. coli ATCC 25922; CA-MHB, 37 °C, 20 h. For orientation: Broth dilution looks for growth in wells or tubes with falling amounts of substance.
In another assay the test system is K. pneumoniae. The assay is described as above. It counts as cell-based. The conditions noted are these: Klebsiella pneumoniae, ATCC13883; K. pneumoniae ATCC 13883; CA-MHB, 37 °C, 20 h.
A further assay deals with P. aeruginosa. The assay is described as above. The conditions noted are these: Pseudomonas aeruginosa, ATCC27853; P. aeruginosa ATCC 27853; CA-MHB, 37 °C, 20 h. It counts as cell-based.
The next assay concerns M. tuberculosis. Nature of the assay: MIC in 7H9 liquid medium, 2 weeks. The conditions noted are these: Mycobacterium tuberculosis, 336 h, M. tuberculosis H37Rv, 37 °C, minimum concentration inhibiting at least 50% of growth. In kind it is cell-based.
In a further assay the test system is M. avium. Nature of the assay: MIC in 7H9 liquid medium, 2 weeks. It counts as cell-based. The conditions noted are these: Mycobacterium avium, ATCC25291, 336 h, M. avium ATCC 25291, 37 °C, minimum concentration inhibiting at least 50% of growth.
For assay [1], the system named is Gram-negative bacterial strains. Kind of assay: Antibacterial activity against Gram-negative bacteria. In kind it is cell-based. The conditions noted are these: four Gram-negative bacterial strains examined.
A further assay relates to A. baumannii. Nature of the assay: Antibacterial activity, MIC by microdilution broth method (CLSI). It counts as cell-based. The conditions noted are these: Acinetobacter baumannii, ATCC19606; A. baumannii ATCC 19606; CA-MHB, 37 °C, 20 h.
The target of a further assay is MraYAA (Aquifex aeolicus, UniProt O66465). Kind of assay: UMP-Glo assay. The conditions noted are these: for Normalized (UMP / Lipid I formed minus no-enzyme average), source data of Fig. 7a: replicates 1-3.
MraYAA, sequence (O66465 whole entry): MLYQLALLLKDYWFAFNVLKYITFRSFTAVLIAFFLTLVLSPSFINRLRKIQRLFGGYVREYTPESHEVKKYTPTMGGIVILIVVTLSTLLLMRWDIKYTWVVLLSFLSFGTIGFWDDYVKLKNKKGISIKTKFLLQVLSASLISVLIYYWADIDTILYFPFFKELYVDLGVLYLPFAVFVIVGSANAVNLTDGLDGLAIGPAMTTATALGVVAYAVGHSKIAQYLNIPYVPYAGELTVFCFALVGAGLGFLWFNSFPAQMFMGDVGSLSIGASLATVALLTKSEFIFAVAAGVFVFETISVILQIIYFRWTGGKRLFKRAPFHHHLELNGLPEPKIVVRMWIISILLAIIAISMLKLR
Assay [2] concerns S. aureus. Nature of the assay: Antibacterial activity, MIC by microdilution broth method (CLSI). The conditions noted are these: Staphylococcus aureus, ATCC29213, 20 h, S. aureus ATCC 29213; CA-MHB, 37 °C, 20 h. It counts as cell-based, Staphylococcus aureus.
Another assay relates to Gram-positive bacteria. Kind of assay: Antibacterial activity against Gram-positive bacteria. In kind it is cell-based. The conditions noted are these: for antibacterial activity against Gram-positive bacteria: such as S. aureus and E. faecium.
Assay [3] deals with T1, MraYSA (S. aureus MraY enzyme) (Staphylococcus aureus, UniProt Q2FZ93).
T1 sequence (Q2FZ93 1-321): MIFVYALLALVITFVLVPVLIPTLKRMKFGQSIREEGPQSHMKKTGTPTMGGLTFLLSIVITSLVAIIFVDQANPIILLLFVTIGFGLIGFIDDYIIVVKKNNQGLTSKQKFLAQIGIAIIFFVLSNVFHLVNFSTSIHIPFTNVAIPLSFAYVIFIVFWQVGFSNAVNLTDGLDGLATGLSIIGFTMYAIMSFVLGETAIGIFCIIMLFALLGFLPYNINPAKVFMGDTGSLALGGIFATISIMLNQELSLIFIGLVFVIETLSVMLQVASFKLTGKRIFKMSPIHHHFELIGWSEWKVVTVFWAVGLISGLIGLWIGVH
Nature of the assay: Fluorescence-based MraY inhibitory assay (dansylated Park's nucleotide). The conditions noted are these: for MraYSA activity, source data of Fig. 7b, average: average of n=1-3.

The test system of a further assay is E. faecium. Nature of the assay: Antibacterial activity, MIC by microdilution broth method (CLSI). In kind it is cell-based, Enterococcus faecium. The conditions noted are these: Enterococcus faecium, ATCC35667, 20 h, E. faecium ATCC 35667; CA-MHB, 37 °C, 20 h; read-out: MIC.
A further assay has as its system E. cloacae. The description is as above. It counts as cell-based. The conditions noted are these: Enterobacter cloacae, ATCC13047; E. cloacae ATCC 13047; CA-MHB, 37 °C, 20 h.
In assay [4] the target is T1, MraYSA (S. aureus MraY enzyme). Also noted: His tag (inferred from His-Trap purification); made in house; host or cells: E. coli; method as in PMID 27622529. The conditions noted are these: read-out: MraYSA inhibitory activity IC50; cited from earlier work.
Assay [5] has as its system S. aureus. The conditions noted are these: S. aureus ATCC 29213; cited from earlier work.

By MIC is commonly meant the lowest concentration that inhibits growth of the organism. By IC50 is commonly meant the concentration that inhibits the measured activity by half. For the molecule `CCCCCCCCCCCCCCCC(=O)O[C@@H]1[C@@H]2CN(C[C@@H]1O)[C@H](C(=O)O)[C@@H]([C@H]1O[C@@H](n3ccc(=O)[nH]c3=O)[C@H](O)[C@@H]1O)O[C@@H]1O[C@H](CN2)[C@@H](O)[C@H]1O` [SPM-1], the MIC against E. coli is over 64 µg/mL; with K. pneumoniae, over 64 µg/mL; against P. aeruginosa, over 64 µg/mL; against M. tuberculosis, 16 µg/mL (≈ 20.4 µM); with M. avium, 2 µg/mL (≈ 2.55 µM); with A. baumannii, over 64 µg/mL. In addition, the MIC against S. aureus [2] is 2 µg/mL (≈ 2.55 µM); in the assay on Gram-positive bacteria (range over S. aureus and E. faecium of Table 1, read-out: MIC against the Gram-positive pathogens), 2 to 4 µg/mL (≈ 2.55 to 5.1 µM); in the assay on E. faecium it was 4 µg/mL (≈ 5.1 µM); in the assay with E. cloacae it was over 64 µg/mL. The “antibacterial activity against Gram-negative bacterial strains” value in [1] was “inactive”. The figures for the IC50 (at MraYAA; in assay [3]) were 0.17 µM and 9.1 nM, respectively. For the same molecule, the “Normalized (UMP / Lipid I formed minus no-enzyme average), source data of Fig. 7a” value at MraYAA (inhibitor concentration 0.025) was 27.4002 and 27.6068 and 25.0152; at MraYAA (inhibitor concentration 0.05), 23.6062 and 21.9589 and 21.8339; on MraYAA (inhibitor concentration 0.1), 22.1835 and 21.2199 and 20.7564; at MraYAA (inhibitor concentration 0.2), 13.2781 and 11.6659 and 13.2137; on MraYAA (inhibitor concentration 0.3) it was 8.4302 and 9.0267 and 7.4669; at MraYAA (inhibitor concentration 0.4), 6.5859 and 6.3347 and 6.5433. The “Normalized (UMP / Lipid I formed minus no-enzyme average), source data of Fig. 7a” value at MraYAA (inhibitor concentration 0.8) is 3.6877 and 2.5343 and 3.6699; on MraYAA (inhibitor concentration 1), 4.5308 and 4.5928 and 4.1831; on MraYAA (inhibitor concentration 5) it was 0.1572 and 0.6868 and 0.8992; at MraYAA (inhibitor concentration 50) it was 0.4734 and -0.0522 and 0.3348. Moreover, in the assay with Gram-positive bacteria, the “antibacterial activity against Gram-positive bacteria” value was “active”. Further, the “MraYSA activity, source data of Fig. 7b, average” value (from here on “MraYSA activity, source data”) was 94.43 in [3] (compound 0.0001 µM); 84.3881 in assay [3] (compound 0.001 µM); 49.3175 in assay [3] (compound 0.01 µM); 11.924 in assay [3] (compound 0.1 µM); 3.067 in assay [3] (compound 1 µM); 2.786 in [3] (compound 10 µM). In [3] (compound 100 µM), the “MraYSA activity, source data” value turned out to be 7.015.

Consider `CCCCCCCCCCCCCCCCC[C@H]1CN(C)[C@@H]([C@H](O[C@@H]2O[C@H](CN)[C@@H](O)[C@H]2O)[C@H]2O[C@@H](n3ccc(=O)[nH]c3=O)[C@H](O)[C@@H]2O)C(=O)N(C)[C@@H]1C(=O)O` [Carbacaprazamycin], for which the IC50 in [4] was 3.8 nM. Besides, in the assay with S. aureus [5], the MIC was 8 µg/mL (≈ 10 µM).

Take `CCCCCCCCCCCCCCCC(=O)O[C@@H]1[C@H](O)CN2C[C@H]1NC[C@H]1O[C@@H](O[C@H]([C@H]3O[C@@H](n4ccc(=O)[nH]c4=O)[C@H](O)[C@@H]3O)[C@H]2C(=O)O)[C@H](O)[C@@H]1O` [SPM-2]: the MIC is over 64 µg/mL with E. coli; over 64 µg/mL in the assay with K. pneumoniae; over 64 µg/mL against P. aeruginosa; over 32 µg/mL with M. tuberculosis; 16 µg/mL (≈ 20.4 µM) in the assay on M. avium; over 64 µg/mL with A. baumannii. Moreover, the MIC is over 64 µg/mL in the assay with S. aureus [2], 16 µg/mL (≈ 20.4 µM) with E. faecium and over 64 µg/mL against E. cloacae. The “antibacterial activity against Gram-negative bacterial strains” value in assay [1] was “inactive”. For the same molecule, the IC50 against MraYAA was 9.2 µM; in [3], 330 nM. Besides, the “Normalized (UMP / Lipid I formed minus no-enzyme average), source data of Fig. 7a” value at MraYAA (inhibitor concentration 0.1) was 34.6720 and 31.83 and 31.8908; at MraYAA (inhibitor concentration 0.4), 29.3499 and 29.56 and 31.6856; on MraYAA (inhibitor concentration 1), 31.9846 and 31.04 and 28.7608; on MraYAA (inhibitor concentration 2.5), 26.0302 and 21.75 and 21.7826; on MraYAA (inhibitor concentration 5), 29.9822 and 25.5 and 23.2193; on MraYAA (inhibitor concentration 12.5), 17.4410 and 14.04 and 12.8545. Besides, the “Normalized (UMP / Lipid I formed minus no-enzyme average), source data of Fig. 7a” value on MraYAA (inhibitor concentration 25) was 11.3284 and 8.499 and 7.57; at MraYAA (inhibitor concentration 50), 4.6362 and 4.593 and 4.08; on MraYAA (inhibitor concentration 70) it was 3.9512 and 2.534 and 2.592; at MraYAA (inhibitor concentration 140), 2.0542 and 1.162 and 1.464. Also, the “MIC increase relative to SPM-1” value in the assay on Gram-positive bacteria (Gram-positive pathogens) is 4 fold. Moreover, the “antibacterial activity against Gram-positive bacteria” value in the assay with Gram-positive bacteria is listed as “active”. The “MraYSA activity, source data” value in [3] (compound 0.0001 µM) is 104.091; in [3] (compound 0.001 µM) it was 99.892; in assay [3] (compound 0.01 µM), 103.991; in assay [3] (compound 0.1 µM) it was 72.6566; in assay [3] (compound 1 µM), 26.5839; in assay [3] (compound 10 µM), 7.955. Also, the “MraYSA activity, source data” value in assay [3] (compound 100 µM) stood at 4.902.
